{
  "source": "patent US11946927B2",
  "about": "“Process and system for identifying individuals having a high risk of inflammatory bowel disease and a method of treatment” (MUSIDORA BIOTECHNOLOGY LLC, priority 2016, dated 2024)",
  "origin": "cited, not measured here",
  "test_system": "patients with active UC",
  "data": [
    {"smiles": "Nc1ccc(O)c(C(=O)O)c1", "note": "[mesalamine]", "values": [
      {"measurement": "efficacy of mesalamine in active UC", "setting": "active UC, first-line conventional clinical treatment", "result": "30-40%"},
      {"measurement": "clinical treatment failures", "setting": "mesalamine used to treat active UC, patients with moderate UC, compared to 80% treated with placebo", "result": "60 % of patients"}
    ]}
  ]
}
